Laboratory results taken from patent publication US4971964A, “Pyridine derivatives” (priority 1988, dated 1990).

What was measured:
[1] = test system: dd male mice; experiment: Acute Toxicity Test (minimum lethal dose, MLD); assay type: in vivo; details: dd male mice, mortality after 7 days
Experimental: A test compound was given to dd male mice weighing 20±1 g (3 mice per group) per os. (p.o.; 300 mg/kg) or intraperitoneally (i.p.; 100 mg/kg). The mortality after 7 days from the administration was considered to determine the minimum lethal dose (MLD).

[2] = target: T1, thromboxane synthase (TXA2 synthase), bovine platelet microsome (Bos taurus, UniProt Q2KIG5); experiment: Test on Inhibition of TXA2 Biosynthesis (bovine platelet microsome, TXB2 by radioimmunoassay); assay type: biochemical
T1 construct: bovine platelet microsome; from tissue; host or cells: bovine platelets (microsome)
T1 sequence (Q2KIG5 1-533): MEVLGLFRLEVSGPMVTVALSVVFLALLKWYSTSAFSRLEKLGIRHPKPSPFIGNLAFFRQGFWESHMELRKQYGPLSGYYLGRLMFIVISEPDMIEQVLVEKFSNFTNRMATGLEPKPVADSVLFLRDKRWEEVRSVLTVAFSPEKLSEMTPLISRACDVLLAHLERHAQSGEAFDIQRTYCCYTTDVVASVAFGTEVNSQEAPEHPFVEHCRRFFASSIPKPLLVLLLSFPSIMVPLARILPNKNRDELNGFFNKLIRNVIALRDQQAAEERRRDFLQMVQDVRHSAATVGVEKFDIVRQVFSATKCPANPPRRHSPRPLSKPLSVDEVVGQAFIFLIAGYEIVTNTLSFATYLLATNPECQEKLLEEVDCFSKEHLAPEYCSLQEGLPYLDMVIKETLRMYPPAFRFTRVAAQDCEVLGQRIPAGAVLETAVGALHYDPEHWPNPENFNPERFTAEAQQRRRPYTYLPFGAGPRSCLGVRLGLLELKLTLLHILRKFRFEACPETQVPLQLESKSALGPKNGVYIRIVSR
Experimental: A mixture of 70 μl of bovine platelet microsome [protein: 40 μg; 100 mM tris-HCl buffer (pH=7.4)] and 10 μl of a test compound solution (100 mM tris-HCl buffer containing 10% methanol) was allowed to stand at 0° C. for 5 minutes, and 20 μl of a prostaglandin H2 solution (100 mM tris-HCl buffer supplemented with acetone containing 0.1 nmol of prostaglandin H2) was added thereto as a substrate.
The amount of thromboxane B2 (TXB2) (stable degradation product of TXA2) produced in the system was determined by radioimmunoassay [F. A. Fitzpatrick et al., Methods in Enzymology, Vol. 86, p.286 (1982)].
Inhibition of TXB2 synthesis was evaluated by IC50 (50% inhibitory concentration) or percent inhibition as calculated from equation described below, and the results obtained are shown in Table 1. [formula]

Row | Compound | Acute Toxicity (MLD) ip [1] | Acute Toxicity (MLD) po [1] | inhibition at 10 µM [2]
1 | O=C(O)CCCCCC1c2ccccc2NC(=O)c2cnccc21 (stereo not drawn) [Compound I-21, 5-(5-Carboxypentyl)-5,11-dihydropyrido[3,4-c][1]benzazepin-11(10H)-one] | > 100 mg/kg | > 300 mg/kg | 47%
2 | CSC1Nc2ccccc2C(=CCCCCC(=O)O)c2ccncc21 (stereo not drawn) [Compound I-22, 5-(5-Carboxypentylidene)-11-thiomethyl-5H-10,11-dihydropyrido[3,4-c][1]benzazepin] | > 100 mg/kg | > 300 mg/kg | 27%
3 | O=C(O)CCCCC=C1c2ccncc2CNc2ccccc21 [Compound I-23, 5-(5-carboxypentylidene)-5H-10,11-dihydropyrido[3,4-c][1]benzazepin] | > 100 mg/kg | > 300 mg/kg | 27%
